# From patent US20060004088A1, “Furan derivatives for preventing and curing osteoporosis and pharmaceutical compositions containing the same” (OCT INC., priority 2002, published 2006)
# “Also recorded” adds a separate entry of the source.
# Legend:
# [1] = test system: osteoclast progenitor cells; test: Formation of TRAP-positive multinucleated cells from osteoclast progenitors; type: cell-based, mice; settings: for No. of TRAP(+) multinucleated cells: M-CSF + RANKL, untreated control 132.80 ± 10.50; for number of TRAP-positive multinucleated cells in treated cultures: text summary, concentration not stated, control 132
# Method: First, bone marrow cells were isolated, as follow. After sacrificing 7-9 week female mice by cervical dislocation, femur and tibia were excised aseptically while removing attached soft tissues. After cutting both ends of long bones, 1 ml of an enzyme solution, containing 0.1% collagenase (Gibco), 0.05% trypsin and 0.5 mM EDTA (Gibco), was injected to the bone marrow cavity at one end using a syringe with a 26-guage needle, and bone marrow was then collected. After shaking the recovered bone marrow for 30 min, bone marrow cells were collected, and cultured in α-minimum essential medium (α-MEM) supplemented with 10% FBS for 24 hrs. Then, non-adherent cells were collected, which are osteoclast pregenitors, aliquotted onto culture plates at a density of 2×10^5 cells per well, and cultured for 8 days in α-MEM supplemented with 20 ng/ml of macrophage-colony stimulating factor (M-CSF, Peprotech, USA) and 30 ng/ml RANKL (Peprotech, USA). During the 8 days of culturing, the cells were treated with the Compound 1. Thereafter, osteoclast formation was investigated by fixing the cultured cells and then carrying out TRAP staining, as described in the following Experimental Example 2.2. In addition, resorption activity of osteoclasts was investigated by measuring the absorption area after removing osteoclasts in cultures in calcium phosphate-coated plates, as described in Experimental Example 2.3, below.
# After cell culture, the adherent cells were washed with PBS, and TRAP staining was performed, as follows. After being fixed with citrate-acetate-formaldehyde for 5 min, the cells were incubated for 1 hr in acetate buffer (prewarmed at 37° C., pH 5.0) containing naphthol AS-BI phosphate, fast Garnet GBC and 7 mM tartrate buffer (pH 5.0). TRAP-positive multinucleated cells having 3 or more nuclei were considered as osteoclasts.
# [2] = test system: ovariectomized white mice with developed osteoporosis; test: Therapeutic effect on osteoporosis, tibia histology; type: in vivo; settings: four weeks after ovariectomy, then oral 220 μl in 30 ml water for four weeks
# Method: In order to evaluate effects of the compound of the present invention on treatment and prevention of osteoporosis, female white mice with osteoporosis induced by ovariectomy were used as a disease model. After ovariectomy, mice were administered with the compound of the present invention. Tibias were dissected from the mice, and observed histologically.
# In order to evaluate therapeutic effect of the Compound 1 on osteoporosis, after ovariectomy, the mice were fed with solid feedstuff for four weeks. After checking progress of osteoporosis in the mice, a test group was administered with the Compound 1 for four weeks, according to the same method as described above, while a control group was fed with only solid feedstuff. Eight weeks after ovariectomy, tibia tissue specimens were prepared according to a method known the art.
# The tibia tissue specimens prepared in the Experimental Example 3-2 were fixed in a Bouin's solution for about 24 hrs. Then, the tibia tissue specimens were decalcificated with 5% nitric acid for about 60 hrs in order to remove inorganic substances including calcium from the tibias, thus softening the tibias to the degree suitable for fracture. […]
# [3] = test system: ovariectomized female white mice; test: Preventive effect on osteoporosis, bone mineral densitometer; type: in vivo; settings: for Change in BMD, %: oral 10 mg per mouse
# Method: After ovariectomy, female white mice weighing about 250 g were orally administered with 10 mg of the Compound 1 per mice for four weeks. Bone mineral density (BMD) was measured before the ovariectomy and every week during the administration of the Compound 1, using a bone mineral densitometer, XCT 540 Research SA made in Germany.
# After anesthetizing the mice being bred in cages by intraperitoneal injection of a mixture of Ketamine HCl (ketara 10 mg/kg) and 2% xylazine HCl (Roupun 0.15 ml/kg), BMD measurement was made at a voxel size of 0.1×0.1 mm^2 and threshold value 280 mg/cm^2 for cancellous bone and 500 mg/cm^2 for compact bone. The analysis sites at the proximal tibias were determined by Scout scans (10 mm/sec), and BMD was measured at three slices at the determined sites by CT scans (7 mm/sec). BMD measurement was performed twice or more at the same every week during four weeks.
# [4] = test system: osteoclast pregenitor cells; test: Inhibition rates of furan derivatives versus osteoclast formation (TRAP staining); type: cell-based, mice; settings: TRAP-positive multinucleated cells, untreated control set as 100%
# Procedure, shortened: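 Non-adherent mouse bone-marrow osteoclast precursors cultured 8 days with 20 ng/ml M-CSF and 30 ng/ml RANKL in presence of compound. TRAP-positive cells with ≥3 nuclei counted; inhibition expressed relative to untreated control set at 100%.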
structure (smiles),measurement,setting,value
"O=Cc1ccc(CO)o1 [Compound 1, 5-hydroxymethylfuran-2-carboxyaldehyde]",No. of TRAP(+) multinucleated cells,"[1]; 10^−4 M Compound 1, 8 days",77.20 ± 6.73
same,No. of TRAP(+) multinucleated cells,"[1]; 10^−5 M Compound 1, 8 days",108.20 ± 4.57
same,No. of TRAP(+) multinucleated cells,"[1]; 10^−6 M Compound 1, 8 days",103.60 ± 6.95
same,No. of TRAP(+) multinucleated cells,"[1]; 10^−7 M Compound 1, 8 days",120.00 ± 6.42
same,No. of TRAP(+) multinucleated cells,"[1]; 10^−8 M Compound 1, 8 days",105.20 ± 8.58
same,number of TRAP-positive multinucleated cells in treated cultures,[1],77
same,number of TRAP-positive multinucleated cells in treated cultures,[1]; listed as Example 1,remarkably reduced
same,"trabecular bone density, histology",[2],just a slight decrease in trabecular bone density; also recorded: no trabecular bone loss
same,BMD after four weeks of administration compared to before ovariectomy (in words),[3]; oral 10 mg/day for four weeks after ovariectomy,increase in BMD; also recorded: remarkably increased bone mineral density (BMD)
same,"Change in BMD, %","[3]; week 1 after ovariectomy, control −7.5",−2.5%
same,"Change in BMD, %","[3]; week 2 after ovariectomy, control −11.6",−3.2%
same,"Change in BMD, %","[3]; week 3 after ovariectomy, control −14.9",−1.8%
same,"Change in BMD, %","[3]; week 4 after ovariectomy, control −18.6",3.7%
same,"Inhibition rate against osteoclast formation, %",[4]; 0.1 μM,0%
same,"Inhibition rate against osteoclast formation, %",[4]; 1 μM,0%
same,"Inhibition rate against osteoclast formation, %",[4]; 10 μM,30%
